# Data taken from patent US20120171123A1, “USES AND COMPOSITIONS FOR TREATMENT OF RHEUMATOID ARTHRITIS” (priority 2006, published 2012).
# How the values were obtained:
# patients with RA [1] = test: Study I (adalimumab 40 mg eow + MTX vs placebo + MTX, 24 weeks): FACIT-F fatigue; format: in vivo, human; details: for mean FACIT-F change from baseline: week 24 (6 months)
# Procedure: FACIT-F was administered at baseline, at 1 or 2 time points during the study, and at the end of the study. The questionnaire asked each patient the following “Below is a list of statements that other people with your illness have said are important. By circling one (1) number per line, please indicate how true each statement has been for you during the past 7 days.” The questions in the questionnaire used to determine the FACIT score included the following, where each patient indicated the appropriate number (0-4): I feel fatigued; I feel weak all over; I feel listless (“washed out”); I feel tired; I have trouble starting things because I am tired; I have trouble finishing things because I am tired; I have energy; I am able to do my usual activities; I need to sleep during the day; I am too tired to eat; I need help doing my usual activities; I am frustrated by being too tired to do the things I want to do; I have to limit my social activity because I am tired. FACIT-F scores range from 0-52, with higher scores representing less fatigue. FACIT-F changes of ≧4 are considered clinically meaningful.
# For Study I, the mean change in baseline for the FACIT-F score at 6 months was 8.1 for ada 40 mg eow+mtx and 2.5 for placebo+mtx (p=0.01). The minimum clinical important difference was determined to be ≧4.0.
# [2] = system: patients with long-standing RA who had inadequate responses to MTX; test: Study 1 (adalimumab + MTX vs placebo + MTX, 12-month RCT plus OLE): radiographic progression (TSS, JE, JSN); format: in vivo, human
# Procedure: The study design included a 12 month, double blind, randomized, placebo-controlled trial.
# Patients were grouped into three cohorts based on baseline CRP concentrations: low (<1 mg/dL); intermediate (1-4 mg/dL); and high (>4 mg/dL). Analyses were further conducted in two categories of patients according to their change in CRP concentrations at Week 12: those with a ≧20% decrease in CRP from baseline; or those with a <20% decrease in CRP from baseline. The following efficacy and radiographic measures were analyzed at Week 52 in the three baseline CRP categories and in the two Week 12 change in CRP categories: DAS28, ACR 20/50/70, Health assessment questionnaire (HAQ), and Total Sharp score (TSS).
# Two readers assessed X-rays performed at baseline (start of RCT), 1 year (end of RCT), and 3 years (post 2 years OLE). Changes from baseline in Total Sharp Score (TSS), Joint Erosions (JE), and Joint Space Narrowing (JSN) were calculated. ACR 20, 50, and 70 response rates, as well as TJC and SJC, were also measured.
# [3] = system: patients with moderate to severe RA; test: Study 1: Health Utilities Index Mark 3 (HUI3); format: in vivo, human; details: week 52
# Procedure: The HUI3 was assessed at baseline, and at several time points during the study. Health Utility Index 3 (scale=0-1) measures preference of a health state, with “1” denoting perfect health and “0” denoting death. HUI3 changes of ≧0.03 are considered clinically important. The HUI3 classification system consists of 8 attributes and 5 or 6 levels on each attribute, ranging from full function to severe impairment.
# patients with RA [4] = test: Study I: HUI3 health utility; format: in vivo, human; details: for mean HUI3 change from baseline: week 24 (6 months)
# Procedure: Inclusion criteria for this study included: all patients had severe active disease; and all patients had failed prior DMARD(s).
# The Health Utilities Index Mark 3 (HUI3) was assessed at three time points. HUI 3 consists of 8 attributes: vision, hearing, speech, ambulation, dexterity, emotion, cognition, and pain. HUI3 score changes of ≧0.03 are considered clinically important. […] As can also be seen in this figure, the Study 2 study population started with baseline values reflecting a patient population with a more severe disease activity than in Study I, as documented by TJC, SJC, HAQ, CRP, and number of previous DMARDs.
# [5] = system: RA patients treated with adalimumab in clinical trials in North America and Europe
# Procedure: The rate of TB was calculated for the period before screening was initiated (primarily Phase I trials) and the period after screening was implemented. The screening program consisted of a clinical interview, a tuberculin skin test, and, in most patients, a chest X-ray (CXR). The definition of PPD-positive depended on local country-specific guidelines. For those people who were PPD-positive, or for whom the investigator felt the risk of TB reactivation was high, INH was given for prophylaxis.
# The methodology differed among protocols. For instance, in Europe and Australia, it was initially used CXR only, and in later studies, CXR and purified protein derivative skin test (PPD) were both used. By contrast, in US and Canada, CXR and PPD were both used.
# [6] = system: MTX-naïve adult patients with early RA (<3 years); test: Study J: escalation of injectable medicine from eow to weekly dosing; format: in vivo, human
# Procedure: Study J was a 2-year, double-blind, active comparator-controlled, Phase III study. […] In patients receiving ADA+MTX or MTX monotherapy, the 7.5 mg MTX weekly dosage increased to 20 mg over 8 weeks, as tolerated and as needed. Monotherapy patients received either placebo pills (adalimumab arm) or placebo injections (MTX arm). Efficacy outcomes measured included ACR response, DAS28 remission, major clinical response, and radiographic change from baseline.
# MTX optimization was required before starting weekly injections (to 20 mg weekly, maximum). Once initiated, weekly dosing of injectable medicine was to be maintained until end of study. Criteria for identification of dosage escalators were a sequence of 4 consecutive injections for which the interval for every two consecutive injections was ≦10 days, and/or that the date of escalation, defined as the second of the 4 injections, had to be on or after Week 16 in Year 1. Three dosage escalator categories were defined, based on best ACR response rate achieved any time prior to escalation: Group A=ACR non-responders (never achieved ACR20 prior to dosage escalation), Group B=Partial responders (achieved ACR20 or ACR50 at least once prior to escalation, but never ACR70), and Group C=ACR70 responders (achieved ACR70 at least once prior to escalation). Data are from the intention-to-treat (ITT) population, with missing data analyzed by non-responder imputation (NRI) for clinical measures and by linear imputation for total Sharp scores (TSS).
structure (smiles),measurement,setting,value
"CN(Cc1cnc2nc(N)nc(N)c2n1)c1ccc(C(=O)N[C@@H](CCC(=O)O)C(=O)O)cc1 [placebo+mtx, methotrexate]",relative FACIT-F change from baseline,patients with RA [1]; week 24,+9%
same,mean FACIT-F change from baseline,patients with RA [1],2.5
same,mean FACIT-F change from baseline,patients with RA [1]; listed as placebo + MTX,+2.5
same,mean change from baseline in Total Sharp Score,[2]; 12 months (blinded),2.8
same,mean change from baseline in joint erosion score,[2]; 12 months (blinded),1.7
same,mean change from baseline in joint space narrowing score,[2]; 12 months (blinded),1.2
same,mean change from baseline in joint erosion score,[2]; 36 months (open-label),1.7
same,mean change from baseline in joint space narrowing score,[2]; 36 months (open-label),1.3
same,mean change from baseline in Total Sharp Score,[2]; 36 months (open-label; all patients on adalimumab 40 mg eow + mtx after month 12),3.0
same,mean HUI3 improvement from baseline,[3],+0.07
same,relative HUI3 improvement from baseline,[3],+18%
same,relative HUI3 change from baseline,patients with RA [4]; week 24,+10%
same,mean HUI3 change from baseline,patients with RA [4],0.04
same,mean HUI3 change from baseline,patients with RA [4]; listed as Placebo + mtx,0.04
same,mean HUI3 change from baseline,patients with RA [4]; listed as placebo + MTX,+0.04
"NNC(=O)c1ccncc1 [INH, isoniazid, reference compound]",patients who developed TB after INH prophylaxis,[5]; 835 patients who received INH,0.5%
same,subjects who developed TB after INH prophylaxis,"[5]; Study A, 712 high-risk subjects given INH before adalimumab",0.6%
CN(Cc1cnc2nc(N)nc(N)c2n1)c1ccc(C(=O)N[C@@H](CCC(=O)O)C(=O)O)cc1 [MTX Monotherapy],Patients who became ACR20 responders after increase to weekly dosing,[6]; 1 year,4%
same,Patients who became ACR50 responders after increase to weekly dosing,[6]; 1 year,1%
same,Patients who reached DAS28 < 2.6 (remission) after increase to weekly dosing,[6]; 1 year,0%
same,Patients who became ACR20 responders after increase to weekly dosing,[6]; 2 years,4%
same,Patients who became ACR50 responders after increase to weekly dosing,[6]; 2 years,2%
same,Patients who reached DAS28 < 2.6 (remission) after increase to weekly dosing,[6]; 2 years,1%
same,Patients with Major Clinical Response after increase to weekly dosing,[6]; ACR70 for ≧6 consecutive months over a 2-year period,1%
